Literature values as cited in patent publication US7098367B2, “Process for the preparation of alkylene glycols” (Saudi Basic Industries Corporation, priority 2004, dated 2006).

Conditions: value may be measured experimentally, taken from references or estimated

In the case of `CN(C)c1ccccc1` [Comparative 1, Dimethylaniline, reference compound], the pKa is listed as 5.07.

In the case of `NC(=O)NC12CC3CC(CC(C3)C1)C2` [Comparative 3, N-(1-adamantyl)urea, reference compound], the pKa is given as 0.18.

For `NCCN` [Example 1, Ethylenediamine (EDA)], the pKa is given as 9.95.

For `C1CCCNCC1` [Example 3, Hexamethyleneimine], the pKa is given as 10.

In the case of `C1CN2CCN1CC2` [Example 5, 1,4-diazabicyclo[2,2,2]octane (DABCO)], the pKa is given as 8.82.

In the case of `CN(C)CCN(C)C` [Example 12, Tetramethylethylenediamine (TMEDA)], the pKa is given as 10.72.
